The values below come from publication PMC6600574 (Molecules, 2019).

Structures are written as SMILES.

One data set has as its system HepG2 cell line. More on the design: method as in Etemad et al. (2015) [19]. The following applies: after 24 and 72 h, highest concentration tested; ref Etemad et al. (2015) [19]; read-out: HepG2 cellular toxicity IC50; cited from earlier work.
Data set [1] has as its system CYP 1B1 (liver microsomes). Kind of data set: Inhibition of hepatic microsome-catalyzed CYP oxidation. The format is in vitro ADME, human. The following applies: CYP 1B1, substrate TFD008_1, liver microsomes. On the procedure:
(§1) Incubations were carried out in a total volume of 100 µl of 100 mM Tris-HCl buffer (pH 7.4) in all black, flat-bottom Costar 96-well plates (Corning Incorporated, Corning, NY, USA). […] The samples were then preincubated at 37 °C for 10 min. The reactions were initiated by the addition of NADPH, and 0–10 µM 7-hydroxycoumarin was used as the standard. The fluorescent signal was measured with a Victor^2 1420 multilabel plate counter (PerkinElmer Lifesciences Wallac, Turku, Finland) with excitation and emission wavelengths of 405 and 460 nm, respectively. Fluorescence was monitored every 2 min for 40 min from where the concentration was calculated at the various time points. From these, oxidation rates (µM/min) and the relative remaining activity of the sample at different concentrations were calculated. The data were fit to sigmoidal dose-response curves with nonlinear regression, and IC50 values (the concentration at which the sample reduced the metabolism of the CYP substrate by 50%) were determined. […] This was analyzed using nonlinear equations in Graph Pad Prism, which produced IC50 values and its 95% confidence interval as the results.

A short description of data set [2]: In vitro metabolism with human liver microsomes or cytosolic proteins and cofactors (UHPLC-QTOF-MS). Format: in vitro ADME. The following applies: for Level of verbascoside during incubation: 10 µM. On the procedure:
From the incubation mixture, 450 µL acetonitrile was added to 150 µL of the samples to stop the reaction at time points of 0, 10, 20, 40, and 60 min. The CYP incubation mixture contained 20% NADPH regenerating system, whereas the glucuronidation incubation mixture contained 0.5 mM UDP-glucuronic acid with 5 mM MgCl2. The sulfonation incubation mixture contained 10 µM PAPS, […], and 500 µg cytosolic protein instead of microsomes, and the methylation incubation mixture contained 0.5 mM S-adenosylmethionine, 5 mM MgCl2, and 500 µg cytosolic protein instead of microsomes. […] The hydrolysis reaction was studied with an incubation mixture that contained 400 µg microsomal protein, or 500 µg cytosolic proteins, and 5 mM MgCl2. A sample with the absence of any enzyme was considered as the blank sample. After stopping the reactions, the samples were centrifuged for 20 min at 10,000× g and stored at −80 °C for analysis by the UHPLC-QTOF-MS system (Agilent Technologies, Waldbronn, Karlsruhe, Germany), which consisted of a 1290 LC system, a Jetstream ESI source, and a 6540 UHD accurate mass quadrupole time-of-flight (QTOF) mass spectrometry. The sample tray was kept at 4 °C during these analyses. […] Two microliters of sample were injected onto a column (Zorbax Eclipse XDB-C8, 2.1 × 100mm, 1.8 µm, Agilent Technologies, Palo Alto, CA, USA) that was kept at 50 °C. Mobile phases, delivered at 0.4 mL/min, consisted of water (eluent A) and methanol (eluent B), both containing 0.1% (v/v) of formic acid. The gradient employed was as follows: 2%→100% B (0–10 min); 100% B (10–14.5 min); 100%→2% B (14.5–14.51 min); and 2% B (14.51–16.50 min).
A Jetstream ESI source, operated in negative ionization mode, used the following conditions: drying gas temperature 325 °C and a flow of 10 L/min, sheath gas temperature 350 °C and a flow of 11 L/min, nebulizer pressure 45 psi, capillary voltage 3500 V, nozzle voltage 1000 V, fragmentary voltage 100 V, and skimmer 45 V. Nitrogen was used as the instrument gas. For data acquisition, a 2 GHz extended dynamic range mode was used from m/z 20 to m/z 1600. Data were collected in the centroid mode at an acquisition rate of 1.67 spectra/s with an abundance threshold of 150. The TOF was calibrated on a daily basis and subsequently operated at a high accuracy (<2 ppm). Continuous mass axis calibration was performed by monitoring two reference ions from an infusion solution throughout the runs. The reference ions were m/z 112.985587 and m/z 966.000725. Identification of the metabolites found in the treatments was based on accurate mass and isotope information (i.e., ratios, abundances, and spacing). The software for the identification of metabolites used was MassHunter Metabolite ID B.04.00 (Agilent Technologies, Santa Clara, CA, USA).

A short description of data set [3]: Nitric oxide scavenging assay (nitroprusside, Griess reagent). Format: biochemical. Conditions: 10 mM nitroprusside, 90 min, read-out: NO IC50. The procedure: Ethanol (10%) was used as a blank. Nitroprusside (50 μL) at a concentration of 10 mM was added to all the wells. The plates were incubated for 90 min at room temperature. After incubation, Griess reagent (100 μL) was added to all the wells, except for the color controls (negative controls) where instead distilled water was added. The absorbances were read at a wavelength of 546 nm using a BIO-TEK Power-Wave XS multiplate reader. From the absorbances an IC50 value was determined.

For data set [4], the target named is T1, CYP 1A1 (placental microsomes) (Homo sapiens, UniProt P04798).
T1 construct: from tissue; host or cells: human placental microsomes
T1 sequence (P04798 1-512): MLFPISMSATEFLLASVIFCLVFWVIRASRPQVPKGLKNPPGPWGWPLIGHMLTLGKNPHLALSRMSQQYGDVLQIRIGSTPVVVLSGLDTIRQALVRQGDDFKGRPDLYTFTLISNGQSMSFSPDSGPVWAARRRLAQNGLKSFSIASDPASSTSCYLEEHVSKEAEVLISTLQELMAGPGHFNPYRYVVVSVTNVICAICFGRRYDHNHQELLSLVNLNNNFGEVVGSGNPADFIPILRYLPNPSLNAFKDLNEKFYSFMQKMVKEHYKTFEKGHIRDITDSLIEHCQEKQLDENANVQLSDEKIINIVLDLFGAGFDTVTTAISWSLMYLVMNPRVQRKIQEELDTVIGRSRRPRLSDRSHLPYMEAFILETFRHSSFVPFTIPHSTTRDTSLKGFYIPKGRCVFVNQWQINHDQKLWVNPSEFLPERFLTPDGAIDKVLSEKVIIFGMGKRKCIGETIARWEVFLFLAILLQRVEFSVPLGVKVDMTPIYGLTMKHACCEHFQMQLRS
The experiment in a line: Inhibition of placental microsome-catalyzed CYP oxidation. Format: in vitro ADME. Conditions: CYP 1A1, substrate TFD024, placental microsomes. On the procedure:
as §1

`C[C@@H]1O[C@@H](O[C@@H]2[C@@H](O)[C@H](OCCc3ccc(O)c(O)c3)O[C@H](CO)[C@H]2OC(=O)/C=C/c2ccc(O)c(O)c2)[C@H](O)[C@H](O)[C@H]1O` [Verbascoside]: the results for the IC50 (in the data set with HepG2 cell line; in data set [3]; in data set [4] (read-out: Microsomal IC50 (µM) with 95% Confidence Intervals)) were > 400 µM, 382 ± 4.15 µM and 350 µM, respectively. The figures for the “Microsomal IC50 (µM) with 95% Confidence Intervals” value in data set [1] and in data set [4] were “No inhibition ^b” and “did not inhibit”, respectively. The “Level of verbascoside during incubation” value in data set [2] (human liver cytosolic protein, PAPS, up to 60 min) is on record as “decreased”; in data set [2] (human liver cytosolic protein, S-adenosylmethionine, up to 60 min), “decreased”; in data set [2] (human liver microsomes, NADPH oxidation incubation), “no decrease”; in data set [2] (human liver microsomes, UDP-glucuronic acid, up to 60 min), “decreased”; in data set [2] (hydrolysis incubation, microsomal or cytosolic protein without cofactor), “no decrease”. For the same compound, the Metabolites formed result in data set [2] (PAPS incubation, levels increased up to 20 min) is reported as “three different sulphate conjugates”; in data set [2] (S-adenosylmethionine incubation, levels increased up to 60 min), “five different methylated conjugates”; in data set [2] (UDP-glucuronic acid incubation with human liver microsomes), “No glucuronide conjugate”.
